Test results taken from ChEMBL document CHEMBL1201862, “PubChem BioAssay data set” (2004).
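48-hour exposure; five concentrations; linearly interpolated endpoints. GI50 = concentration required for 50% inhibition of growth.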 Active and inactive are the calls of the source. Cut-off read from the data, not from the text of the source: active = GI50 up to about 1.1 µM and inactive = higher.

Columns and labels:
Assay in all cases: DTP human tumour cell line panel, 48 h
A498 = tested on: A498
HCT-15 = tested on: HCT-15
LOX IMVI = tested on: LOX IMVI
M14 = tested on: M14
MOLT-4 = tested on: MOLT-4
Malme-3M = tested on: Malme-3M
NCI-H226 = tested on: NCI-H226
NCI-H522 = tested on: NCI-H522
OVCAR-8 = tested on: OVCAR-8
RXF 393 = tested on: RXF 393
SF-295 = tested on: SF-295
SN12C = tested on: SN12C
SNB-75 = tested on: SNB-75
TK-10 = tested on: TK-10
UACC-257 = tested on: UACC-257
SR = tested on: SR
HL-60 = tested on: HL-60

Compound | GI50 (A498) | GI50 (HCT-15) [µM] | GI50 (LOX IMVI) | GI50 (M14) | GI50 (MOLT-4) | GI50 (Malme-3M) | GI50 (NCI-H226) | GI50 (NCI-H522) | GI50 (OVCAR-8) | GI50 (RXF 393) | GI50 (SF-295) | GI50 (SN12C) | GI50 (SNB-75) | GI50 (TK-10) | GI50 (UACC-257) | GI50 (SR) | GI50 (HL-60)
O=c1cc(O)cc2n1CCC2 | > 100 µM (inactive) | > 100 | > 100 µM (inactive) | > 100 µM (inactive) | > 100 µM (inactive) | > 100 µM (inactive) | > 100 µM (inactive) | > 100 µM (inactive) | > 100 µM (inactive) | > 100 µM (inactive) | > 100 µM (inactive) | > 100 µM (inactive) | > 100 µM (inactive) | > 100 µM (inactive) | > 100 µM (inactive) | – | –
COc1ccc(/C(=N\NC(=O)C(=O)NN)C(c2ccc(OC)cc2)C2(O)C(=O)Nc3ccccc32)cc1 (centres undefined) | 48.8 µM (inactive) | 94.8 | – | > 100 µM (inactive) | 6.44 µM (inactive) | 42.7 µM (inactive) | > 100 µM (inactive) | 28.1 µM (inactive) | > 100 µM (inactive) | – | – | 57.8 µM (inactive) | > 100 µM (inactive) | 69 µM (inactive) | – | 46 µM (inactive) | –
Cc1ccccc1C(=O)Oc1ccc(O)cc1 | > 100 µM (inactive) | > 100 | – | > 100 µM (inactive) | > 100 µM (inactive) | > 100 µM (inactive) | > 100 µM (inactive) | > 100 µM (inactive) | > 100 µM (inactive) | > 100 µM (inactive) | > 100 µM (inactive) | > 100 µM (inactive) | > 100 µM (inactive) | > 100 µM (inactive) | > 100 µM (inactive) | – | > 100 µM (inactive)
CCOC(=O)C(=O)Nc1cccc(Cl)c1C | – | > 100 | > 100 µM (inactive) | > 100 µM (inactive) | > 100 µM (inactive) | > 100 µM (inactive) | > 100 µM (inactive) | > 100 µM (inactive) | > 100 µM (inactive) | > 100 µM (inactive) | > 100 µM (inactive) | > 100 µM (inactive) | – | > 100 µM (inactive) | > 100 µM (inactive) | – | > 100 µM (inactive)
N#CCCN(c1ccc(C=O)cc1)S(=O)(=O)c1ccccc1 | > 100 µM (inactive) | > 100 | > 100 µM (inactive) | > 100 µM (inactive) | > 100 µM (inactive) | > 100 µM (inactive) | > 100 µM (inactive) | > 100 µM (inactive) | > 100 µM (inactive) | – | > 100 µM (inactive) | > 100 µM (inactive) | 61.9 µM (inactive) | – | > 100 µM (inactive) | > 100 µM (inactive) | > 100 µM (inactive)
CCN(CC)CCn1c2c3ccccc3ccc2c2oc(=O)c3ccccc3c21 | – | > 100 | > 100 µM (inactive) | 45.5 µM (inactive) | – | > 100 µM (inactive) | – | > 100 µM (inactive) | > 100 µM (inactive) | – | 56.2 µM (inactive) | – | 15.9 µM (inactive) | > 100 µM (inactive) | > 100 µM (inactive) | 34.7 µM (inactive) | > 100 µM (inactive)
Cc1cc(O)nc(CNC(=O)Cc2ccccc2)n1 | > 100 µM (inactive) | > 100 | > 100 µM (inactive) | > 100 µM (inactive) | > 100 µM (inactive) | > 100 µM (inactive) | > 100 µM (inactive) | > 100 µM (inactive) | > 100 µM (inactive) | > 100 µM (inactive) | > 100 µM (inactive) | > 100 µM (inactive) | > 100 µM (inactive) | > 100 µM (inactive) | > 100 µM (inactive) | – | > 100 µM (inactive)
CC1=COC(=O)c2ccccc2N1 | – | > 100 | > 100 µM (inactive) | > 100 µM (inactive) | – | > 100 µM (inactive) | > 100 µM (inactive) | > 100 µM (inactive) | > 100 µM (inactive) | > 100 µM (inactive) | > 100 µM (inactive) | > 100 µM (inactive) | > 100 µM (inactive) | > 100 µM (inactive) | – | > 100 µM (inactive) | > 100 µM (inactive)
CCN(CC)CCNC(=O)c1ccccc1NC(=O)C(=O)Nc1ccccc1C(=O)NCCN(CC)CC | > 100 µM (inactive) | 49.9 | 24.9 µM (inactive) | 19.1 µM (inactive) | 30.2 µM (inactive) | 21 µM (inactive) | > 100 µM (inactive) | 39.2 µM (inactive) | > 100 µM (inactive) | – | 42.5 µM (inactive) | 60.5 µM (inactive) | 47 µM (inactive) | > 100 µM (inactive) | 18.6 µM (inactive) | 21.8 µM (inactive) | 15.2 µM (inactive)
COc1cc2ccc3c4cc(OC)c(OC)cc4c[n+](C)c3c2cc1O | > 24.4 µM (inactive) | > 100 | > 73.8 µM (inactive) | > 100 µM (inactive) | > 100 µM (inactive) | > 100 µM (inactive) | 9.16 µM (inactive) | 8.97 µM (inactive) | 32.3 µM (inactive) | > 100 µM (inactive) | – | 2.1 µM (inactive) | 15.2 µM (inactive) | > 100 µM (inactive) | > 100 µM (inactive) | – | > 100 µM (inactive)
CCOC(=O)C(C(=O)c1ccccc1)=C1NCCN1 | – | > 100 | > 100 µM (inactive) | > 100 µM (inactive) | > 100 µM (inactive) | > 100 µM (inactive) | > 100 µM (inactive) | > 100 µM (inactive) | > 100 µM (inactive) | > 100 µM (inactive) | > 100 µM (inactive) | > 100 µM (inactive) | – | – | > 100 µM (inactive) | > 100 µM (inactive) | > 100 µM (inactive)
O=C(N/N=C/c1cccc(O)c1O)N/N=C/c1cccc(O)c1O | 32.1 µM (inactive) | 8.45 | 18.7 µM (inactive) | 14 µM (inactive) | 5.38 µM (inactive) | 22.4 µM (inactive) | 23.4 µM (inactive) | – | 16.6 µM (inactive) | 19 µM (inactive) | 17.9 µM (inactive) | 21.8 µM (inactive) | 8.77 µM (inactive) | 29.4 µM (inactive) | 19.9 µM (inactive) | – | –
CCCCN(CC)C(=O)C(=O)C1C(=O)Nc2ccccc2[S+]1[O-] (centres undefined) | > 100 µM (inactive) | > 100 | > 100 µM (inactive) | > 100 µM (inactive) | > 100 µM (inactive) | > 100 µM (inactive) | > 100 µM (inactive) | > 100 µM (inactive) | > 100 µM (inactive) | > 100 µM (inactive) | – | > 100 µM (inactive) | > 100 µM (inactive) | > 100 µM (inactive) | > 100 µM (inactive) | – | –
COc1ccc(C2Cc3cc(OC)c(OC)c(OC)c3C2=O)cc1 (centres undefined) | > 100 µM (inactive) | > 100 | > 100 µM (inactive) | > 100 µM (inactive) | > 100 µM (inactive) | > 100 µM (inactive) | > 100 µM (inactive) | – | > 100 µM (inactive) | – | > 100 µM (inactive) | > 100 µM (inactive) | 47.3 µM (inactive) | > 100 µM (inactive) | > 100 µM (inactive) | – | –
